One test has as its target Histamine H1 receptor (Homo sapiens, UniProt P35367).
For test [1], the target named is T1, Gamma-aminobutyric acid receptor subunit alpha-1/alpha-2/beta-2/gamma-2 (Homo sapiens, UniProt P14867+P18507+P47869+P47870). The test is classed as functional, cell-based.
For test [2], the target named is T2, Muscarinic acetylcholine receptor M1 (Homo sapiens, UniProt P11229).
T2 sequence (P11229 whole entry): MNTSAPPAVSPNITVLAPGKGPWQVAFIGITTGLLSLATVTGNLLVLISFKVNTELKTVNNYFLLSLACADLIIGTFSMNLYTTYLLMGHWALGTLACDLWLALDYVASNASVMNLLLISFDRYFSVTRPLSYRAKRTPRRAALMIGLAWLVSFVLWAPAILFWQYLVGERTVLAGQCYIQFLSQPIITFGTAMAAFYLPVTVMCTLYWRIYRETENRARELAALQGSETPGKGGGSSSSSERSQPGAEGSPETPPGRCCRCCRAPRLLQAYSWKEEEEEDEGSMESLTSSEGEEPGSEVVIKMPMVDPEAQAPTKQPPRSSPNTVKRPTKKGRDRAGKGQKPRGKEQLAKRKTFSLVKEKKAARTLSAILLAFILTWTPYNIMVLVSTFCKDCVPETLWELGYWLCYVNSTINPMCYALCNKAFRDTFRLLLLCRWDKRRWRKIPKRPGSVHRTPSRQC
The test is classed as functional.

Test [3] has as its target T1, Gamma-aminobutyric acid receptor subunit alpha-1/alpha-2/beta-2/gamma-2. The test is classed as protein-complex assay.
For a further test, the target named is Mu-type opioid receptor (Homo sapiens, UniProt P35372). As to the kind of experiment: biochemical. The test is classed as functional.
Mu-type opioid receptor, sequence (P35372 whole entry): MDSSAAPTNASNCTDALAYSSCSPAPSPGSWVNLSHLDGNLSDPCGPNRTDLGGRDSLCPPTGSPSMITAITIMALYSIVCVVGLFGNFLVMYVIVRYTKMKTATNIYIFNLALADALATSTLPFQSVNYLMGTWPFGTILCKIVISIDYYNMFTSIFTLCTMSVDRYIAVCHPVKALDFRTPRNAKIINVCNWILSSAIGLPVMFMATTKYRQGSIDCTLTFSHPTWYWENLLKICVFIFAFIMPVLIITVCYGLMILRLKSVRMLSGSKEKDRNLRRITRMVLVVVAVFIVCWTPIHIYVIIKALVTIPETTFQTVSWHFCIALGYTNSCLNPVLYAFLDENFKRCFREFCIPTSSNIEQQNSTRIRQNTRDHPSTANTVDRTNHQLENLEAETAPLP
For a further test, the target named is Cannabinoid receptor 1 (Homo sapiens, UniProt P21554).
Cannabinoid receptor 1, sequence (P21554 whole entry): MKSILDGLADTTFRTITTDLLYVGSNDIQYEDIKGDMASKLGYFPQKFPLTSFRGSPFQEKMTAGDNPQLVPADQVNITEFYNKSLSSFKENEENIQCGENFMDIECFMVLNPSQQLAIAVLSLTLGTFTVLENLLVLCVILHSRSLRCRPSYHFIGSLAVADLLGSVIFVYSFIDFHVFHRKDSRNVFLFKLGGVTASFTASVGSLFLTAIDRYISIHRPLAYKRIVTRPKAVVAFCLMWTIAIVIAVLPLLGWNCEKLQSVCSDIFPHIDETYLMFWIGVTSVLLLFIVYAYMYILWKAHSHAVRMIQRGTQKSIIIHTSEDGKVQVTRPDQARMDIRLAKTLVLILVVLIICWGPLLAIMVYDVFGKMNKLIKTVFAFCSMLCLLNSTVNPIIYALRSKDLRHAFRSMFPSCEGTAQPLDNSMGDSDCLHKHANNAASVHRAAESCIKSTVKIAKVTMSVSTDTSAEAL
Test [4] has as its target T3, Corticotropin-releasing factor receptor 2 (Homo sapiens, UniProt Q13324).
T3 sequence (Q13324 whole entry): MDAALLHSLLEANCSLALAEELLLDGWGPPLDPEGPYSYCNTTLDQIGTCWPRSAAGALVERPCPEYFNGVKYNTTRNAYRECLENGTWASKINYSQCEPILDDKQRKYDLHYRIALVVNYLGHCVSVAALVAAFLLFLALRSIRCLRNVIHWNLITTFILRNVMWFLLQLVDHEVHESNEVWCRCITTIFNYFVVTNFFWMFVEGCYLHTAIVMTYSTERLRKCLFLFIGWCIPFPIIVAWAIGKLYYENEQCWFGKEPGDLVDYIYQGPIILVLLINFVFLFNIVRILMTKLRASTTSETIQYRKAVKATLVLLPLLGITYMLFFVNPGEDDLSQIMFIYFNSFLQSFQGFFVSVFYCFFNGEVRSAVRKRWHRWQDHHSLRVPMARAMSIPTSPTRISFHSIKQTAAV
Further: assay procedure not described here.

T1 sequence (P14867 whole entry): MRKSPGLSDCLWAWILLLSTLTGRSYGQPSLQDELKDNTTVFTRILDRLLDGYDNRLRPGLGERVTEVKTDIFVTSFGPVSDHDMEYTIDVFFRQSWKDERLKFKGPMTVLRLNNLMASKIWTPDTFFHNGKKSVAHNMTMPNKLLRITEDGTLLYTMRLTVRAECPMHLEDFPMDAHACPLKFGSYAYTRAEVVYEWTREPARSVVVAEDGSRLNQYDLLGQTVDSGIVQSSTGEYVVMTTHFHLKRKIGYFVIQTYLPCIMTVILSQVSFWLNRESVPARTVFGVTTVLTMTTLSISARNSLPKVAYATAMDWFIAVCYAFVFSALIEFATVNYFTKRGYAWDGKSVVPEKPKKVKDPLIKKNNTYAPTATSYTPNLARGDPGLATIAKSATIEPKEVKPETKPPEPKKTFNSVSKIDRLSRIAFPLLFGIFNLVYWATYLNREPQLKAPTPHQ
T1 sequence (P47870 whole entry): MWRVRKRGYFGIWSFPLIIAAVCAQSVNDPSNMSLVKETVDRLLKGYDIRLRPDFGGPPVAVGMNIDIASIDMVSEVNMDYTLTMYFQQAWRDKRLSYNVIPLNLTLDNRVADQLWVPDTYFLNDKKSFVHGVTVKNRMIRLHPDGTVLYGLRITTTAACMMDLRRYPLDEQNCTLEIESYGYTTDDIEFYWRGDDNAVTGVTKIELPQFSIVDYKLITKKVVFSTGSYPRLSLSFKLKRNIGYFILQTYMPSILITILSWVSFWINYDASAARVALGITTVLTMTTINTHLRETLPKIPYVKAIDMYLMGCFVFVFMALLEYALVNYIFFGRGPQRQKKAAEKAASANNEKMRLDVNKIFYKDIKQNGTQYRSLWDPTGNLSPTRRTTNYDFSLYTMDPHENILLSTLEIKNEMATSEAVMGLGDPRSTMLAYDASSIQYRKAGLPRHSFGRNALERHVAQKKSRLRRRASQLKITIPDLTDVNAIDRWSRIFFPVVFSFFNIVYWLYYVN
T1 sequence (P18507 whole entry): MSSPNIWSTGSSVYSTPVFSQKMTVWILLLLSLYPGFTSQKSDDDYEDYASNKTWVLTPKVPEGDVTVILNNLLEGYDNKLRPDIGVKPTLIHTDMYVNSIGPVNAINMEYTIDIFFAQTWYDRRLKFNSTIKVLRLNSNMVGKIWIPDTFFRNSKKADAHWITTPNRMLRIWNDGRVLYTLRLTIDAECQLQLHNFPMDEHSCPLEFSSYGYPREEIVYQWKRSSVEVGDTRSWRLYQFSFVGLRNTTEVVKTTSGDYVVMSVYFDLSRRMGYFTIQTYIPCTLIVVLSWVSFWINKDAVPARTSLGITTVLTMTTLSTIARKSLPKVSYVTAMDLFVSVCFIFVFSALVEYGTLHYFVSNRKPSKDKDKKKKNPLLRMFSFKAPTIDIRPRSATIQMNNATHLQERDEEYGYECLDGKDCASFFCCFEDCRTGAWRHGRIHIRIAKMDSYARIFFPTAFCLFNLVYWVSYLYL
T1 sequence (P47869 whole entry): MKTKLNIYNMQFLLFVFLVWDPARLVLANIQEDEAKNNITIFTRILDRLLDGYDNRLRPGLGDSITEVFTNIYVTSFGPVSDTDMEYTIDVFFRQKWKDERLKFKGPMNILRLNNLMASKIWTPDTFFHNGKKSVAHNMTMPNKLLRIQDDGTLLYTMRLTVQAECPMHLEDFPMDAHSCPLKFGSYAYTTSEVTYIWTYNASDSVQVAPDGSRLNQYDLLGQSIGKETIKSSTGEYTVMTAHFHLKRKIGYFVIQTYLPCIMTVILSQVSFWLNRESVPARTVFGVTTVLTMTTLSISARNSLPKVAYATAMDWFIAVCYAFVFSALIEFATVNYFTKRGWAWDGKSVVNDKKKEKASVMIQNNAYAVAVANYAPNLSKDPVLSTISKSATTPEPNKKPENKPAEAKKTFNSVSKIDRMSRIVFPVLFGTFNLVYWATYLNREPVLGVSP
Histamine H1 receptor, sequence (P35367 whole entry): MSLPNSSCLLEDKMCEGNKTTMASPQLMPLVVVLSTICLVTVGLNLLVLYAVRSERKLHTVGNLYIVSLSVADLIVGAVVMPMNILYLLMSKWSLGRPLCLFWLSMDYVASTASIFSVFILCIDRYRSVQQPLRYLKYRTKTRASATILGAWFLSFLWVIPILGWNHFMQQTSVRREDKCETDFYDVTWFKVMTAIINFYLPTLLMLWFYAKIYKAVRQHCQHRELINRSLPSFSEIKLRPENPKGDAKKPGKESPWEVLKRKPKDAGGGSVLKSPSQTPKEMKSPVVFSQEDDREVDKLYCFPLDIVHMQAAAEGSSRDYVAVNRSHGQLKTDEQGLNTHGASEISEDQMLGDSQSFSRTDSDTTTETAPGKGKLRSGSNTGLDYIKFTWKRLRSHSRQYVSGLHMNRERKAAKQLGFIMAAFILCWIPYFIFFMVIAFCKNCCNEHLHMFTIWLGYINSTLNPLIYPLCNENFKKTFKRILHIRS

With `CCOc1cc([C@@H](CS(C)(=O)=O)N2C(=O)c3cccc(NC(C)=O)c3C2=O)ccc1OC`, the half-maximal activity concentration (AC50) (at Histamine H1 receptor; in test [1]; in test [2]) was above 30 µM each time.
In test [3], `CC(=O)NCCCCCC(=O)O` [ACEXAMIC ACID] registered an AC50 above 30 µM.
For the compound `CC(=O)Nc1ccc(CC(=O)O)cc1` [ACTARIT], the concentration at half-maximal activity (AC50) (on Histamine H1 receptor; on Mu-type opioid receptor; in test [2]) was above 30 µM throughout.
Compound `C=C(C)CNc1ccc(C(C)C(=O)O)cc1` (centres undefined) [ALMINOPROFEN] gave an AC50 in test [3] above 30 µM.
Same read-out and setting: the figure for `C[C@H]1CN(C[C@H](Cc2ccccc2)C(=O)NCC(=O)O)CC[C@@]1(C)c1cccc(O)c1` [ALVIMOPAN] is above 30 µM.
With `CC(C(=O)O)c1ccc2oc(-c3ccc(Cl)cc3)nc2c1` (centres undefined) [BENOXAPROFEN], the AC50 on Mu-type opioid receptor was above 30 µM.
In test [3], `O=C(O)c1ccccc1` [BENZOIC ACID] returned a half-maximal activity concentration (AC50) above 30 µM.
For `CC1(C)S[C@@H]2[C@H](NC(=O)C(C(=O)O)c3ccccc3)C(=O)N2[C@H]1C(=O)O` (some centres undefined) [CARBENICILLIN], the AC50 (on Histamine H1 receptor; on Mu-type opioid receptor; in test [1]; in test [2]) was above 30 µM each time.
As to `Cc1nnc(SCC2=C(C(=O)O)N3C(=O)[C@@H](NC(=O)Cn4cnnn4)[C@H]3SC2)s1` [CEFAZOLIN], the concentration at half-maximal activity (AC50) at Histamine H1 receptor is above 300 µM; on Mu-type opioid receptor it was above 30 µM; in test [1], above 2400 µM; in test [2], above 300 µM.
As for `CC=CC1=C(C(=O)O)N2C(=O)[C@@H](NC(=O)[C@H](N)c3ccc(O)cc3)[C@H]2SC1` [CEFPROZIL], the AC50 (at Cannabinoid receptor 1; on Histamine H1 receptor; at Mu-type opioid receptor; in test [2]) was above 30 µM in each case.
Take `CC(C)(O/N=C(\C(=O)N[C@@H]1C(=O)N2C(C(=O)[O-])=C(C[n+]3ccccc3)CS[C@H]12)c1csc(N)n1)C(=O)O` [CEFTAZIDIME]: the AC50 on Histamine H1 receptor was above 300 µM; at Mu-type opioid receptor, above 30 µM; in test [1], above 2400 µM; in test [2], above 300 µM.
With `CCCNC(=O)NS(=O)(=O)c1ccc(Cl)cc1` [CHLORPROPAMIDE], the figures for the concentration at half-maximal activity (AC50) (at Cannabinoid receptor 1; in test [4]) were above 10 µM and above 30 µM, respectively.
`Cc1cc(C2CCCCC2)n(O)c(=O)c1` [CICLOPIROX] gave an AC50 in test [3] above 30 µM.
On to `Clc1ccc(Cn2c(CN3CCCC3)nc3ccccc32)cc1` [CLEMIZOLE], for which the AC50 on Histamine H1 receptor was 0.0034 µM; in test [1], above 30 µM; in test [2], above 30 µM.
For the compound `CCC(=O)O[C@]1(C(=O)CCl)[C@@H](C)C[C@H]2[C@@H]3CCC4=CC(=O)C=C[C@]4(C)[C@@]3(F)[C@@H](O)C[C@@]21C` [CLOBETASOL PROPIONATE], the half-maximal activity concentration (AC50) on Mu-type opioid receptor is above 30 µM.
For the compound `C[C@H]1O[C@@H](O[C@H]2CC[C@@]3(C)[C@H](CC[C@@H]4[C@@H]3C[C@@H](O)[C@]3(C)[C@@H](C5=CC(=O)OC5)CC[C@]43O)C2)C[C@H](O)[C@@H]1O[C@H]1C[C@H](O)[C@H](O[C@H]2C[C@H](O)[C@H](O[C@@H]3O[C@H](CO)[C@@H](O)[C@H](O)[C@H]3O)[C@@H](C)O2)[C@@H](C)O1` [DESLANOSIDE], the concentration at half-maximal activity (AC50) in test [3] was above 30 µM.
Regarding `CC(C)Cc1ccc([C@H](C)C(=O)O)cc1` [DEXIBUPROFEN], in test [1], the AC50 is above 30 µM.
With `CC(C(=O)O)c1cccc(Oc2ccccc2)c1` (centres undefined) [FENOPROFEN], in test [3], the concentration at half-maximal activity (AC50) was above 30 µM.
`Cc1onc(-c2c(F)cccc2Cl)c1C(=O)N[C@@H]1C(=O)N2[C@@H]1SC(C)(C)[C@@H]2C(=O)O` [FLOXACILLIN]: the half-maximal activity concentration (AC50) (on Histamine H1 receptor; in test [1]; in test [2]) was above 30 µM in each case.
`CC1(C)O[C@@H]2C[C@H]3[C@@H]4C[C@H](F)C5=CC(=O)C=C[C@]5(C)[C@@]4(F)[C@@H](O)C[C@]3(C)[C@]2(C(=O)CO)O1` [FLUOCINOLONE ACETONIDE] yielded a concentration at half-maximal activity (AC50) in test [3] above 30 µM.
On the same count and under the same terms, the value for `N=C(N)N/N=C/c1c(Cl)cccc1Cl` [GUANABENZ] was above 30 µM.
Take `CCCCCCCN(CC)CCCC(O)c1ccc(NS(C)(=O)=O)cc1` (centres undefined) [IBUTILIDE]: the AC50 (at Cannabinoid receptor 1; at Histamine H1 receptor; on Mu-type opioid receptor; in test [2]) was above 30 µM each time.
In test [3], `CC(C)[C@@H]1CC[C@@H](C)C[C@H]1O` [LEVOMENTHOL] displayed a concentration at half-maximal activity (AC50) above 30 µM.
`C[N+]1(C)CCCC(OC(=O)C(O)(c2ccccc2)c2ccccc2)C1` (centres undefined) [MEPENZOLATE] returned an AC50 in test [3] above 30 µM.
On to `CN(C)c1ccc(O)c2c1C[C@H]1C[C@H]3[C@H](N(C)C)C(O)=C(C(N)=O)C(=O)[C@@]3(O)C(O)=C1C2=O` [MINOCYCLINE], for which the half-maximal activity concentration (AC50) in test [3] is above 30 µM.
The compound `CCNC(=O)/C=C(C)/C=C/C=C(C)/C=C/c1c(C)cc(OC)c(C)c1C` [MOTRETINIDE] displayed an AC50 in test [3] above 30 µM.
`CNC(=C[N+](=O)[O-])NCCSCc1csc(CN(C)C)n1` [NIZATIDINE]: the AC50 at Cannabinoid receptor 1 is above 10 µM; at Mu-type opioid receptor, above 30 µM.
For `CN1Cc2c(N)cccc2C(c2ccccc2)C1` (centres undefined) [NOMIFENSINE], the concentration at half-maximal activity (AC50) was 30 µM on Histamine H1 receptor, 1.4 µM at Mu-type opioid receptor, above 30 µM in test [1] and above 30 µM in test [2].
On to `COc1ccc2[nH]c([S+]([O-])Cc3ncc(C)c(OC)c3C)nc2c1` (centres undefined) [OMEPRAZOLE], for which, in test [3], the AC50 was above 30 µM.
Regarding `CCCc1cc(=O)[nH]c(=S)[nH]1` [PROPYLTHIOURACIL], at Cannabinoid receptor 1, the AC50 is above 10 µM.
Turning to `Cn1cc(C(=O)[C@@H]2CCc3nc[nH]c3C2)c2ccccc21` [RAMOSETRON], the AC50 (at Histamine H1 receptor; on Mu-type opioid receptor; in test [2]) was above 30 µM each time.
On to `C[N+](C)(C)CCOC(=O)CCC(=O)OCC[N+](C)(C)C` [SUXAMETHONIUM], for which, in test [3], the AC50 is above 30 µM.
For `S=P(N1CC1)(N1CC1)N1CC1` [THIOTEPA], the AC50 in test [1] was above 30 µM.
Regarding `Cc1ccsc1C(=CCCN1CCC[C@@H](C(=O)O)C1)c1sccc1C` [TIAGABINE], in test [3], the AC50 was above 30 µM.
The same measure, in the same setting: the value for `Cc1ccc(C(=O)c2ccc(CC(=O)O)n2C)cc1` [TOLMETIN] was above 30 µM; that for `Cc1ccccc1C(=O)Nc1ccc(C(=O)N2CCCC(O)c3cc(Cl)ccc32)c(C)c1` (centres undefined) [TOLVAPTAN] was above 30 µM; that for `C[C@]12C=CC(=O)C=C1CC[C@H]1[C@@H]3C[C@@H](O)[C@](O)(C(=O)CO)[C@@]3(C)C[C@H](O)[C@@]12F` [TRIAMCINOLONE] was above 30 µM.
On the same count and under the same terms, the value for `CCC1=C[C@@H]2CN(C1)Cc1c([nH]c3ccccc13)[C@@](C(=O)OC)(c1cc3c(cc1OC)N(C)[C@H]1[C@@](O)(C(=O)OC)[C@H](OC(C)=O)[C@]4(CC)C=CCN5CC[C@]31[C@@H]54)C2` [VINORELBINE] was above 30 µM.
On to `COc1cc(C(=O)NS(=O)(=O)c2ccccc2C)ccc1Cc1cn(C)c2ccc(NC(=O)OC3CCCC3)cc12` [ZAFIRLUKAST], for which the AC50 at Cannabinoid receptor 1 is above 10 µM.

The term AC50 denotes the concentration giving half of the maximal activity seen. Higher therefore signals activity only at high concentration.
